From patent publication US7939546B2, “Quinoline derivatives for modulating DNA methylation” (SuperGen, Inc., priority 2007, dated 2011)
Where a name gives a salt, the structure may show the parent alone. Read-outs that look alike come from different tables or passages of the source.

Experiments:
[1] = system: CMV-EE210 cell line containing the epigenetically silenced GFP transgene; experiment: Cell-based GFP assay for demethylating activity (reactivation of silenced GFP transgene); conditions: for IC50: read-out: GFP IC50; for GFP Expression Level: test compound 30-50 μM, decitabine at 11 M (so in the source), three days
Procedure: (§1) The demethylating activity of non-bis-quaternary 4-anilinoquinolines were tested in a cell-based GFP (green fluorescent protein) assay. This assay has a GFP gene regulated by the CMV promoter and is sensitive to the methylation of CpG sites within the promoter. A decrease in methylation resulting from exposure to a methylation inhibitor leads to GFP expression and is readily scored. Specifically, the CMV-EE210 cell line containing the epigenetically silenced GFP transgene was used to assay for reactivation of GFP expression by flow cytometry. CMV-EE210 was made by transfecting NIH 3T3 cells with the pTR-UF/UF1/UF2 plasmid (Zolotuhin et al., 1996), which is comprised of pBS(+) (Stratagene, Inc.) containing a cytomegalovirus (CMV) promoter driving a humanized GFP gene adapted for expression in mammalian cells. After transfection, high-level GFP expressing cells were initially selected by FACS analysis and sorting using a MoFlo cytometer (Cytomation, Inc.). […] To screen for reactivation of CMV-EE210, decitabine (at […]) or a test compound (at a concentration of 30-50 μM) was added to complete medium (phenol red free DMEM (Gibco, Life Technologies) supplemented with 10% fetal bovine serum (Hyclone)). Cells were then seeded to 30% confluence (˜5000 cell/well) in 96 well plate containing the test compounds and grown for three days in at 37° C. in 5% CO2. The plates were examined under a fluorescent microscope using a 450-490 excitation filter (13 filter cube, Leica, Deerfield Ill.). Wells were scored g1 positive if 10% of viable cells express GFP, g2 positive if 30% of viable cells express GFP and g3 if greater than 75% of the viable cells express GFP. GFP IC 50 is the concentration of an inhibitor that (like an IC50) is the dose at which the GFP expression level goes from g3 to g1/2.

DNMT1 = DNMT1 (Homo sapiens, UniProt P26358); experiment: Selective depletion of DNMT1 by Western blot in treated HCT116 cells; type: cell-based; parameters: Protein extracts (equivalent to 100 μg) were isolated from HCT116 cells; endogenous in cells; host or cells: HCT116; conditions: for % DNMT1 protein level remaining at 5 µM: HCT-116, 5 μM; for % DNMT1 protein level remaining at 10 µM: HCT-116, 10 μM; for % DNMT1 protein level remaining at 100 µM: HCT-116, 100 μM
Text: Biol. 2005, 11, 4727-41.]. For DNMT1, commercially available antibodies from Santa Cruz or New England Biolabs were used.

CMV-EE210 cell line = experiment: Toxicity (TD50, cell viability) reported with the GFP assay; conditions: for TD50: Dose at which cells are >50% viable
Procedure: as §1

[2] = dose at which the GFP expression level goes from g3 to g1/2

DNMT1, sequence (P26358 whole entry): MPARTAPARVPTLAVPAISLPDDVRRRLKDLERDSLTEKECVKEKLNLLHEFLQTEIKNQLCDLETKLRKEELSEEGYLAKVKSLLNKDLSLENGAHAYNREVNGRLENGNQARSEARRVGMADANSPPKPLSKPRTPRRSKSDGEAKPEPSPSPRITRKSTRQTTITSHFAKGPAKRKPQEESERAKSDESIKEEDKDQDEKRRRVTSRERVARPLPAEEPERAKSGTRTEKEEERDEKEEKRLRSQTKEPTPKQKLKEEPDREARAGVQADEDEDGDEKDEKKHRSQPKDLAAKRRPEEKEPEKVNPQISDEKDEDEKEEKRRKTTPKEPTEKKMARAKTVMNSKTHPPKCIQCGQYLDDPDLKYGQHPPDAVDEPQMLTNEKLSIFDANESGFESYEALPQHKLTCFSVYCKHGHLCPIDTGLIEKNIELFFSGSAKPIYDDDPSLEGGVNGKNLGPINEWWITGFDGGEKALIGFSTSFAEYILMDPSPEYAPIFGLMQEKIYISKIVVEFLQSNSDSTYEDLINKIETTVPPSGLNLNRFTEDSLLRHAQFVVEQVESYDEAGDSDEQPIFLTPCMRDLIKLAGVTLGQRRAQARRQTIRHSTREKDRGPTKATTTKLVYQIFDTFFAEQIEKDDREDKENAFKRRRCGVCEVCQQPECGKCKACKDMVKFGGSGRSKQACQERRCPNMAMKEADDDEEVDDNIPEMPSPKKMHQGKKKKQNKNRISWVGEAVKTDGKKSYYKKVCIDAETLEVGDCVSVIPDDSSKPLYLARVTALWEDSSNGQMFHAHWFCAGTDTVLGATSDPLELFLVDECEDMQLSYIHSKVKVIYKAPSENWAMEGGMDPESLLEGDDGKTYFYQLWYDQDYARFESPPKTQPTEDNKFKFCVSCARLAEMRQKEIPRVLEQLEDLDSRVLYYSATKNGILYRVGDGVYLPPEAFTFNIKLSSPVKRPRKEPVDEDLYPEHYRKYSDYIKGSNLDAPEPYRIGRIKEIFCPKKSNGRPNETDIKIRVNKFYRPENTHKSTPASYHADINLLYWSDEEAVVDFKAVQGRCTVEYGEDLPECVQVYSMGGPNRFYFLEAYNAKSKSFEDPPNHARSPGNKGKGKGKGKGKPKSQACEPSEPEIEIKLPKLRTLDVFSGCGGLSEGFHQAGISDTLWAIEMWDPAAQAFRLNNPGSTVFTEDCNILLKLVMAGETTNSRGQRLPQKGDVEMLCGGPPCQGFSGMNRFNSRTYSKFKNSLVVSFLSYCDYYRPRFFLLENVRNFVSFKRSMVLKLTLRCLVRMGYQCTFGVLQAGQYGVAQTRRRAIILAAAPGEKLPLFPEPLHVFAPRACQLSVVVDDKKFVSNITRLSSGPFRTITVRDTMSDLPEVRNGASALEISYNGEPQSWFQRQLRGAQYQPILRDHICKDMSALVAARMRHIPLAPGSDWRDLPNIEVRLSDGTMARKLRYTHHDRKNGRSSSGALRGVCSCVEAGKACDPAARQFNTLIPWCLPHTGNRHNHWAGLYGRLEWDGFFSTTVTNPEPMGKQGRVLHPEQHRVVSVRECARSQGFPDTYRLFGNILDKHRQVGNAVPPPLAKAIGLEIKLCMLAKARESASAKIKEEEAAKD

Molecule	IC50 [1, 2] [µM]	GFP Expression Level [1]	% DNMT1 Level (DNMT1; 5 μM) [%]	% DNMT1 Level (DNMT1; 10 μM) [%]	% DNMT1 Level (DNMT1; 100 μM) [%]	TD50 (CMV-EE210 cell line) [µM]	IC50 [1] [µM]	melting point [°C]	% DNMT1 protein level remaining at 5 µM (DNMT1) [%]	% DNMT1 protein level remaining at 10 µM (DNMT1) [%]	% DNMT1 protein level remaining at 100 µM (DNMT1) [%]	toxicity relative to decitabine (CMV-EE210 cell line)
C[n+]1ccc(Nc2cccc(C(=O)Nc3ccc(Nc4ccnc5cc(N)ccc45)cc3)c2)cc1.Cl.[Cl-] [Cpd. X, 7-amino-4-[4-({3-[(1-methyl-4-pyridiniumyl)amino]benzoyl}amino)anilino]quinolinium dichloride]	50	g2 (g2 positive if 30% of viable cells express GFP)	49	98	73	25	–	–	–	–	–	–
Cc1cc(Nc2ccc(NC(=O)c3ccc(Nc4ccnc5ccccc45)cc3)cc2)nc(N)n1 [Cpd. E, N-(4-(2-amino-6-methylpyrimidin-4-ylamino)phenyl)-4-(quinolin-4-ylamino)benzamide hydrochloride]	–	g1 (g1 positive if 10% of viable cells express GFP)	11	0.5	–	25	12	–	–	–	–	–
CN(C)c1ccc2c(Nc3ccc(C(=O)Nc4ccc(Nc5cc[n+](C)cc5)cc4)cc3)ccnc2c1.Cl.[Cl-] [Cpd. AA]	–	g2 (g2 positive if 30% of viable cells express GFP)	136	101	32	25	–	–	–	–	–	–
C[n+]1ccc(Nc2cccc(C(=O)Nc3ccc(Nc4ccnc5ccc(N)cc45)cc3)c2)cc1 [Cpd. M, 6-amino-4-[4-({3-[(1-methyl-4-pyridiniumyl)amino]benzoyl}amino)anilino]quinolinium dichloride]	–	–	–	–	–	25	–	> 310	30	40	43	–
C[n+]1ccc(Nc2cccc(C(=O)Nc3ccc(Nc4ccnc5ccccc45)cc3)c2)cc1.Cl.[Cl-] [Cpd. C, 4-[4-({3-[(1-methyl-4-pyridiniumyl)amino]benzoyl}amino)anilino]quinolinium dichloride]	50	g1 (g1 positive if 10% of viable cells express GFP)	31	33	34	25	–	–	–	–	–	–
Cc1cc(Nc2ccc(NC(=O)c3ccc(Nc4ccnc5cc(N(C)C)ccc45)cc3)cc2)nc(N)n1 [Cpd. BB, N-[4-(2-amino-6-methylpyrimidin-4-ylamino)phenyl]-4-(7-(dimethylamino)quinolin-4-ylamino)benzamide hydrochloride]	–	–	–	–	–	25	100	–	106	76	32	less than one-half as toxic as decitabine
C[n+]1ccc(Nc2ccc(C(=O)Nc3ccc(Nc4ccnc5ccc(N)cc45)cc3)cc2)cc1 [Cpd. N, 4-[4-({4-[(6-amino-4-quinolinyl)amino]anilino}carbonyl)anilino]-1-methylpyridinium chloride]	–	g2 (g2 positive if 30% of viable cells express GFP)	–	–	–	50	100	–	160	152	130	–
C[n+]1ccc(Nc2ccc(C(=O)Nc3ccc(Nc4ccnc5ccccc45)cc3)cc2)cc1.Cl.[Cl-] [Cpd. D, 4-[4-({4-[(1-methyl-4-pyridiniumyl)amino]benzoyl}amino)anilino]quinolinium dichloride]	–	g1 (g1 positive if 10% of viable cells express GFP)	131	103	74	12.5	–	–	–	–	–	–
C[n+]1ccc(Nc2cccc(C(=O)Nc3ccc(Nc4ccnc5ccc([N+](=O)[O-])cc45)cc3)c2)cc1 [Cpd. J, 4-[4-({3-[(1-methyl-4-pyridiniumyl)amino]benzoyl}amino)anilino]-6-nitroquinolinium dichloride]	–	–	–	–	–	12.5	–	> 300	101	89	59	–
C[n+]1ccc(Nc2cccc(NC(=O)c3ccc(Nc4ccnc5ccc(N)cc45)cc3)c2)cc1 [Cpd. K, 4-[3-({4-[(6-ammonio-4-quinolinyl)amino]benzoyl}amino)anilino]-1-methylpyridinium dichloride]	–	–	–	–	–	12.5	–	270 to 274	98	92	37	–
Nc1ncn([C@H]2C[C@H](O)[C@@H](CO)O2)c(=O)n1 [Decitabine, 5-aza-2′-deoxycytidine, reference compound]	0.39	–	–	–	–	12.5	–	–	0 to 5	–	–	–
C[n+]1ccc(Nc2ccc(NC(=O)c3ccc(Nc4ccnc5ccccc45)cc3)cc2)cc1 [Cpd. B, 1-methyl-4-(4-(4-(quinolin-4-ylamino)benzamido)phenylamino)pyridinium chloride hydrochloride]	–	–	–	–	–	25	–	–	102	98	81	–
C[n+]1ccc(Nc2cccc(NC(=O)c3ccc(Nc4ccnc5cc(N)ccc45)cc3)c2)cc1 [Cpd. V, 4-[3-({4-[(7-ammonio-4-quinolinyl)amino]benzoyl}amino)anilino]-1-methylpyridinium dichloride]	–	–	–	–	–	12.5	–	281 to 285	112	110	124	–
C[n+]1ccc(Nc2cccc(C(=O)Nc3ccc(Nc4ccnc5cc([N+](=O)[O-])ccc45)cc3)c2)cc1.Cl.[Cl-] [Cpd. T, 4-[4-({3-[(1-methyl-4-pyridiniumyl)amino]benzoyl}amino)anilino]-7-nitroquinolinium dichloride]	–	–	64	69	85	25	–	–	–	–	–	–
C/C(=N\N=C(N)N)c1ccc(NC(=O)c2ccc(Nc3ccnc4ccc([N+](=O)[O-])cc34)cc2)cc1 [Cpd. I, (E)-N-[4-{1-([diaminomethylene]hydrazono)ethyl}phenyl]-4-(6-nitroquinolin-4-ylamino)benzamide hydrochloride]	–	–	–	–	–	25	–	–	27	80	48	–
CN(C)c1ccc2c(Nc3ccc(NC(=O)c4ccc(Nc5cc[n+](C)cc5)cc4)cc3)ccnc2c1.Cl.[Cl-] [Cpd. DD, 7-(dimethylamino)-4-[4-({4-[(1-methyl-4-pyridiniumyl)amino]benzoyl}amino)aniline]quinolinium dichloride]	–	–	90	74	52	25	–	–	–	–	–	–
1-methyl-4-[4-(4-{7-nitroquinolin-4-ylamino}benzamido)-phenylamino]pyridinium dichloride [Cpd. S]	–	–	87	101	69	25	–	–	–	–	–	–
